Values belong to the compound of their own block, whether it stands above or below them.
Key:
[1] = system: PC3 prostate cancer cells; test: MTT cell viability assay, PC3; assay type: cell-based; settings: for IC50: MTT
Description: PC3 prostate cancer cells were maintained in DMEM (Invitrogen™, Carlsebad, CA) supplemented with 10% FBS or Corning® Nu-serum™(BD™ Biosciences, Franklin Lakes, NJ) and 1% penicillin/streptomycin (Invitrogen™) in a humidified incubator and 5% CO2 at 37° C.
Exponentially growing cells were plated in 96-well dishes. Dose response curves were used to treat cells for 72 hours with inhibitors. Following the three-day treatment, cell viability was measured using the MTT (3-(4,5-dimethylthiazol-2-yl)-2,5-diphenyltetrazolium bromide) colorimetric assay. Cells were incubated for 3 hours with MTT allowing viable cells to metabolize the tetrazolium dye to a purple colored solution. Absorbance measurements (595 nm) were quantified using a DTX 880 plate reader and IC50 values were generated for FLIPs.

PLK1 PBD (367-603) = molecular target: T1, PLK1 PBD (367-603) (Homo sapiens, UniProt P53350); test: Fluorescence polarization assay, PLK1 PBD; assay type: binding; settings: for IC50: fluorescence polarization, read-out: PLK1 PBD IC50
T1 construct: PLK1 PBD (367-603) and PLK3 PBD (335-646) proteins were obtained from BPS Biosciences Inc; purchased BPS Biosciences Inc. (San Diego, CA)
T1 sequence (P53350 367-603): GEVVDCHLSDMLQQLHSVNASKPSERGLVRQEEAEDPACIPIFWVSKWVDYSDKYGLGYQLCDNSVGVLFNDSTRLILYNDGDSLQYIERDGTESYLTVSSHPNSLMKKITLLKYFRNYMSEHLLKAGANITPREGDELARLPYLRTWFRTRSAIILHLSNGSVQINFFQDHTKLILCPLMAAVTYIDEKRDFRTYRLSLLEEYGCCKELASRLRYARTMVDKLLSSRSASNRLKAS
Description: (§1) Materials were dissolved in DMSO (10 mM) and diluted from 10 nM to 600 μM (maximum of 6% DMSO tolerance in the assay). PLK1 PBD (367-603) and PLK3 PBD (335-646) proteins were obtained from BPS Biosciences Inc. (San Diego, CA); 17 ng PLK1 and 156 ng PLK3 were used per reaction. The fluorescein-tracer phospho-peptides (MAGPMQS[pT]PLNGAKK (SEQ ID NO: 1) for PLK1, and GPLATS[pT]PKNG (SEQ ID NO: 2) for PLK3) were used at a final concentration of 10 nM. Incubation was carried out at room temperature for 45 minutes. Fluorescence was measured using a DTX 880 plate reader and Multimode Analysis software (Beckman Coulter, Brea, CA). The polarization values in millipolarization (mP) units were measured at an excitation wavelength of 488 nm and an emission wavelength of 535 nm. Each data point was performed in triplicate for every experiment, and experiments were performed at least three times. An IC50 value for each compound was calculated from linear regression analysis of the plots.

PLK3 PBD (335-646) = molecular target: T2, PLK3 PBD (335-646) (Homo sapiens, UniProt Q9H4B4); test: Fluorescence polarization assay, PLK3 PBD; assay type: binding
T2 construct: PLK1 PBD (367-603) and PLK3 PBD (335-646) proteins were obtained from BPS Biosciences Inc; purchased BPS Biosciences Inc. (San Diego, CA)
T2 sequence (Q9H4B4 335-646): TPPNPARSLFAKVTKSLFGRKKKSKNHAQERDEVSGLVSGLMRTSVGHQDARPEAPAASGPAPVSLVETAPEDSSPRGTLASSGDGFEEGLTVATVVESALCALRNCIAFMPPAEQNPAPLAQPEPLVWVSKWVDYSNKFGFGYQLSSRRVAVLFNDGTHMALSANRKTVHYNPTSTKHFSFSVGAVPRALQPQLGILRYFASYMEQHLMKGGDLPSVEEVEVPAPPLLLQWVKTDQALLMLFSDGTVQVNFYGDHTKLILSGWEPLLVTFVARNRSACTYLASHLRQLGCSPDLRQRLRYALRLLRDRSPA
Description: as §1

PLK1 [2] = molecular target: T3, PLK1 (Homo sapiens, UniProt P53350); test: Cellular thermal shift assay (CETSA); assay type: cell-based; design: endogenous in cells; host or cells: PC3 prostate cancer cells; settings: intracellular PLK1
T3 sequence (P53350 whole entry): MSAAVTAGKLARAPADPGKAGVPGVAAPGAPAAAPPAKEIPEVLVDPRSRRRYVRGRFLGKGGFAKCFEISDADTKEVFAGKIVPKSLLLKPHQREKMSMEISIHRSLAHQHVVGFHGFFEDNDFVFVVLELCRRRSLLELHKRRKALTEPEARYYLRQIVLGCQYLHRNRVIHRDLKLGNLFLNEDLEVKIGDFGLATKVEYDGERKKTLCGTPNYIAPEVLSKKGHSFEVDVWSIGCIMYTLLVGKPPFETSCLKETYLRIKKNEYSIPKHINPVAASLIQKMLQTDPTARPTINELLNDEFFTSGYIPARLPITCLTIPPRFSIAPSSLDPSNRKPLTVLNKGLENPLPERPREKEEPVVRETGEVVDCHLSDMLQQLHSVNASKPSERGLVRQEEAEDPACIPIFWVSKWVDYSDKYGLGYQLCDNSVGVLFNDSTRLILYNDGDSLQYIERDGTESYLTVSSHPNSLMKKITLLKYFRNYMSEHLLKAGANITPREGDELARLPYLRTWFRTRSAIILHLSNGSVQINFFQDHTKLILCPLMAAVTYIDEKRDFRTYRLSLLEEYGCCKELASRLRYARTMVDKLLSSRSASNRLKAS
Description: Cellular thermal shift assay (CETSA) was performed with PC3 cells cultured in RPMI medium supplemented with 10% FBS. For an initial determination of the melting profile of PLK1 AND PLK3, cells dispensed into 96-well PCR plates in the above medium (6000 cells/well in 50 μL) were subjected to temperature gradient (38-60° C.) for 10 min. […] Centrifugation was performed at 14000 rpm to sediment the denatured protein content. Supernatant was collected and subjected to SDS-PAGE, and immunodetection was performed using anti-PLK1 and anti-PLK3 antibodies. PLK1 and PLK3 bands were quantified on a LI-COR C-Digit Blot Scanner, and Tagg and Tagg values were calculated for both proteins. In subsequent experiments, cells were treated at increasing doses (3.0, 1.0, 0.3, 0.1, 0.03 μM) of inhibitors together with DMSO control, for 2 h. Cells were then subjected to heat shock at Tagg for 10 min, and unstable protein was removed by centrifugation step. Following immuno-blotting, bands of stable PLK1 and PLK3 were quantified, normalized to loading control and plotted using GraphPad Prism software. EC50 values for inhibitors were calculated. […] The EC50 of the peptides were determined from the curve fit of the dose response.

PLK1 [3] = molecular target: T3, PLK1; test: PLK1 degradation in HeLa cells; assay type: cell-based; design: endogenous in cells; settings: HeLa cell line, 24, 48 and 72 hours
Description: (§2) For example, PC3 cells were treated with varying dosages of abbapolin 6369, and percent of PLK1 degradation was measured at 24 hours (FIGS. 8A-8B). HeLa cells were treated with 25 μM abbapolin 6369, and time points shown in the assay were 24 hours, 48 hours, and 72 hours (FIGS. 9A-9B). PC3 cells were treated with varying dosages of abbapolin 6329, and percent of PLK1 degradation was measured at 24 hours (FIGS. […]). HeLa cells were treated with varying dosages of abbapolin 6329, and time points shown in the assay were 24 hours, 48 hours, and 72 hours (FIGS. 11A-11B).

PLK1 [4] = molecular target: T3, PLK1; test: PLK1 degradation in PC3 cells; assay type: cell-based; design: endogenous in cells; host or cells: PC3 prostate cancer cells; settings: PC3 cell line, 24 hours
Description: as §2

MDA-MB-468 = test: Single dose cell viability assay, MDA-MB-468; assay type: cell-based; settings: MDA-MB-468 (Breast), single dose 25 μM
Description: (§3) Lead abbapolin compounds were tested in multiple cancer cell lines, including non-small cell lung cancer (NSCLC) cells, melanoma cells, colon cancer cells, central nervous system (CNS) cancer cells, prostate cancer cells, renal cancer cells, and breast cancer cells. Each of these cancer cells lines were sensitive to the lead abbapolin compounds in a cell viability assay, including 6184 (Table 3), 6277 (Table 4), 6279 (Table 5), 6355 (Table 6), 6359 (Table 7), 6369 (Table 8), and 6421 (Table 9).

SK-MEL-5 = test: Single dose cell viability assay, SK-MEL-5; assay type: cell-based; settings: SK-MEL-5 (Melanoma), single dose 25 μM
Description: as §3

NCI-H522 = test: Single dose cell viability assay, NCI-H522; assay type: cell-based; settings: NCI-H522 (NSCLC), single dose 25 μM
Description: as §3

SK-MEL-2 = test: Single dose cell viability assay, SK-MEL-2; assay type: cell-based; settings: SK-MEL-2 (Melanoma), single dose 25 μM
Description: as §3

HOP-92 = test: Single dose cell viability assay, HOP-92; assay type: cell-based; settings: HOP-92 (NSCLC)
Description: as §3

HCT-15 = test: Single dose cell viability assay, HCT-15; assay type: cell-based; settings: HCT-15 (Colon), single dose 25 μM
Description: as §3

SF-295 = test: Single dose cell viability assay, SF-295; assay type: cell-based; settings: SF-295 (CNS), single dose 25 μM
Description: as §3

RPMI-8226 = test: Single dose cell viability assay, RPMI-8226; assay type: cell-based; settings: RPMI-8226 (Leukemia), single dose 25 μM
Description: as §3

CCRF-CEM = test: Single dose cell viability assay, CCRF-CEM; assay type: cell-based; settings: CCRF-CEM (Leukemia), single dose 25 μM
Description: as §3

U251 = test: Single dose cell viability assay, U251; assay type: cell-based; settings: U251 (CNS), single dose 25 μM
Description: as §3

UACC-62 = test: Single dose cell viability assay, UACC-62; assay type: cell-based; settings: UACC-62 (Melanoma), single dose 25 μM
Description: as §3

- IC50 (PLK1 PBD (367-603)): 80.8 µM
SMILES: CCCCCCCCc1ccc(C(=O)Nc2cccc(P(=O)(O)O)c2)cc1 [compound 6287]
- PC3 % inhi. ([1]; at 100 μM): 50% inhi. at

- IC50 (PLK1 PBD (367-603)): 19.5 µM
SMILES: CCCCCCCCc1cccc(C(=O)Nc2ccc(C)cc2C(=O)O)c1 [compound 6281]

- IC50 ([1]; 72 h): 25.9 µM
- IC50 ([1]; 72 hours): 18.3 µM
- IC50 (PLK3 PBD (335-646)): > 200 µM
- IC50 (PLK1 PBD (367-603)): > 100 µM
SMILES: CCCCCCCCc1ccc(C(=O)Nc2ccc(C)cc2C(=O)O)cc1OC [compound 6280]

- IC50 (PLK1 PBD (367-603)): 21 µM
SMILES: CCCCCCCCc1ccc(C(=O)Nc2ccc(C)cc2C(=O)O)cc1C [compound 6282]

- PLK1 thermal stability by CETSA (PLK1 [2]): decreased the stability of PLK1
SMILES: CC[C@@H]1C(=O)N(C)c2cnc(Nc3ccc(C(=O)N[C@H]4CC[C@H](N5CCN(CC6CC6)CC5)CC4)cc3OC)nc2N1C(C)C [volasertib, reference compound]

- PLK1 degradation (PLK1 [3]): degradation of PLK1
- PLK1 degradation (PLK1 [4]): degradation of PLK1
SMILES: Cc1ccc(NC(=O)c2ccc(OCCCCCCCCCCCNC(=O)CCCC(=O)Nc3cccc4c3C(=O)N(C3CCC(=O)NC3=O)C4=O)cc2)c(C(=O)O)c1 (stereo not shown) [compound 6329]

- IC50 ([1]; 72 h): > 120 µM
- IC50 (PLK3 PBD (335-646)): > 600 µM
- IC50 (PLK1 PBD (367-603)): > 600 µM
SMILES: Cc1ccc(NC(=O)c2ccc(N)cc2)c(C(=O)O)c1 [compound 6153]

- IC50 ([1]; 72 h): > 120 µM
- IC50 (PLK1 PBD (367-603)): > 600 µM
SMILES: Cc1ccc(C(=O)O)c(NC(=O)c2ccc(N)cc2)c1 [compound 6154]

- PLK1 PBD % inhi. (PLK1 PBD (367-603); at 400 μM): 37% inhi. at
SMILES: CCCCCCNC(=O)c1ccc(C(=O)Nc2ccc(C)cc2C(=O)O)cc1 [compound 6189]

- IC50 ([1]; 72 h): 20.4 ± 4.4 µM
- IC50 (PLK1 PBD (367-603)): 51.5 µM
SMILES: CCCCCCCCc1ccc(C(=O)Nc2cccc(CP(=O)(O)O)c2)cc1 [compound 6195]

SMILES: CCCCCCCOc1cccc(S(=O)(=O)Nc2ccc(C)cc2C(=O)O)c1 [compound 6355]
- Cells Remaining (%) (MDA-MB-468): 55.12%
- Cells Remaining (%) (SK-MEL-5): 59.55%
- Cells Remaining (%) (NCI-H522): 65.09%
- Cells Remaining (%) (SK-MEL-2): 30.01%
- Cells Remaining (%) (HOP-92; single dose 25 μM): 57.02%
- Cells Remaining (%) (HCT-15): 49.94%
- Cells Remaining (%) (SF-295): 59.2%
- Cells Remaining (%) (RPMI-8226): 51.41%
- Cells Remaining (%) (CCRF-CEM): 67.09%
- Cells Remaining (%) (U251): 64.99%
- Cells Remaining (%) (UACC-62): 61.59%

- IC50 ([1]; 72 h): 28 µM
- IC50 (PLK1 PBD (367-603)): > 600 µM
SMILES: CCCCCCCCN(C)c1ccc(C(=O)Nc2ccc(C)cc2C(=O)O)cc1 [compound 6172]

- IC50 ([1]; 72 h): 27.3 µM
- IC50 (PLK1 PBD (367-603)): > 600 µM
SMILES: CCCCCCCCN(C)c1ccc(C(=O)Nc2cc(C)ccc2C(=O)O)cc1 [compound 6171]

- IC50 ([1]; 72 h): 9.2 µM
- IC50 (PLK1 PBD (367-603)): 95.3 µM
SMILES: CCCCCCCCc1ccc(C(=O)Nc2ccccc2CP(=O)(O)O)cc1 [compound 6184]
- Cells Remaining (%) (HOP-92; single dose 10 μM): 43.86%

- IC50 ([1]; 72 h): 26.6 µM
- IC50 ([1]; 72 hours): 25.1 µM
- IC50 (PLK1 PBD (367-603)): 53 µM
SMILES: CCCCCCCCc1ccc(C(=O)Nc2ccccc2P(=O)(O)O)cc1 [compound 6286]

- IC50 ([1]; 72 h): 14.2 ± 2 µM
- IC50 (PLK3 PBD (335-646)): 37.6 ± 5.7 µM
- IC50 (PLK1 PBD (367-603)): 23.5 ± 4.9 µM
SMILES: CCCCCCCCc1ccc(C(=O)Nc2ccc(C(F)(F)F)cc2C(=O)O)cc1 [compound 6165]

— patent US20230338316A1, “ABBAPOLINS AS INHIBITORS AND DEGRADERS OF POLO-LIKE KINASES” (UNIVERSITY OF SOUTH CAROLINA, priority 2022, published 2023)
